Read-outs that look alike come from different tables or passages of the source. Numbered stars: 1 amine (or outer) side, 2 acyl side, 3 side chain; on linkers, the order of the positions; unused ones are H or OH. Bridge positions count the residues as written; N and C are the ends. Square brackets hold non-standard residues; d marks the D form. Peptide text beside a SMILES is read from it. * marks the point of attachment. C20 diacid = O=C(O)CCCCCCCCCCCCCCCCCCC(=O)*; γGlu = O=C(O)[C@H](CCC(=O)[*:2])N[*:1]; NMeI = CC[C@H](C)[C@H](NC)C(=O)O; Sar = CNCC(=O)O
Experiments:
[1] = biological target: T1, human amylin receptor 3 (hAMYR3) consisting of hCTR2 co-expressed with human Receptor Activity Modifying Protein 3 (hRAMP3) (Homo sapiens, UniProt O60896+P30988); assay: hAMYR3 assay: induction of cAMP (AlphaScreen cAMP Assay kit) in COS7 cells expressing hAMYR3; type: cell-based
T1 construct: expressed in transfected cells
T1 sequence (P30988 25-474): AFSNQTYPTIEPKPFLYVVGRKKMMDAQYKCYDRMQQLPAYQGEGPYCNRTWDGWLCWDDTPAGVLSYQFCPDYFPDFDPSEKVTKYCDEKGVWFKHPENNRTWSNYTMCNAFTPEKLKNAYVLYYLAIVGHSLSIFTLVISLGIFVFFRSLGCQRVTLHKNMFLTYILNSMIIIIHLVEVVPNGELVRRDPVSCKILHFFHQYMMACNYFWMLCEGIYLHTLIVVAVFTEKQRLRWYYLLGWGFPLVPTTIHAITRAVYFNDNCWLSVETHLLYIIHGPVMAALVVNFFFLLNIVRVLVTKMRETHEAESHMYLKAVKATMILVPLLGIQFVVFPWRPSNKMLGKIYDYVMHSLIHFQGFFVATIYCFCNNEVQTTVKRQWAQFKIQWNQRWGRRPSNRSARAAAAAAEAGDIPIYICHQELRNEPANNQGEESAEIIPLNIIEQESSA
T1 sequence (O60896 24-148 partner): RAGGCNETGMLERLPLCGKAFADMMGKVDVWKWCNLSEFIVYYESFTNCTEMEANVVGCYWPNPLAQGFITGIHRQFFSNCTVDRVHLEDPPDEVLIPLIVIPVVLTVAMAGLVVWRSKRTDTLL
In short: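 cAMP accumulation read by AlphaScreen in lysates of RAMP-naive COS7 cells stably transfected with hCTR2 plus hRAMP3. Cells exposed to peptide dilutions for 15 min, 37° C, with 100 µM IBMX; 4PL fitting gave EC50 and efficacy relative to pramlintide.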

[2] = Solubility assessment (turbidity absorbance at 325 nm); type: physicochemical; conditions: stock 2 mg/ml diluted 1:1, ambient temperature (typically 25°C), n=1; for Solubility, Acetate buffer pH 4: 100 mM acetate buffer pH 4.0; for Solubility, Acetate buffer pH 5: 100 mM acetate buffer pH 5.0; for Solubility, Histidine buffer pH 6: 100 mM histidine buffer pH 6.0; for Solubility, Histidine buffer pH 7: 100 mM histidine buffer pH 7.0; for Solubility, Phosphate buffer pH 6: 100 mM phosphate buffer pH 6.0; for Solubility, Phosphate buffer pH 7: 100 mM phosphate buffer pH 7.0; for Solubility, Phosphate buffer pH 7.5: 100 mM phosphate buffer pH7.5
In short: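 Read-out: turbidity as absorbance at 325 nm (280 nm also read), single samples, ambient temperature of typically 25°C. Samples were a 1:1 mix of 2 mg/ml stock (water, pH 2.5) with 100 mM acetate, histidine or phosphate buffers spanning pH 4.0–7.5. Cut-off: A325 ≤ 0.02 indicates ≥ 1 mg/ml.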

[3] = biological target: T2, human calcitonin receptor (hCTR2) (Homo sapiens, UniProt P30988); assay: hCTR2 assay: induction of cAMP (AlphaScreen cAMP Assay kit) in COS7 cells expressing hCTR2; type: cell-based
T2 construct: expressed in transfected cells
T2 sequence (P30988 25-474): T1 sequence (P30988 25-474)
In short: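 cAMP read-out by AlphaScreen after cell lysis; EC50 and % efficacy vs pramlintide from 4-parameter logistic fitting. Agonist stimulation: hCTR2-COS7 stable cells, 15 min, 37° C, 100 µM IBMX, 0.1% casein, Tyrode/HEPES pH 7.4.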

[4] = cAMP induction in COS7 cells expressing hAMYR3, average of a minimum of 3 determinations, read-out: hAMY R3 EC50
[5] = cAMP induction in COS7 cells expressing hCTR2, average of a minimum of 3 determinations, read-out: hCTR2 EC50

Compound | EC50 [1] [nM] | Solubility, Acetate buffer pH 4 [2] | Solubility, Acetate buffer pH 5 [2] | Solubility, Histidine buffer pH 6 [2] | Solubility, Histidine buffer pH 7 [2] | Solubility, Phosphate buffer pH 6 [2] | Solubility, Phosphate buffer pH 7 [2] | Solubility, Phosphate buffer pH 7.5 [2] | EC50 [3] [nM] | EC50 [1, 4] [nM] | EC50 [3, 5] [nM]
CC[C@H](C)[C@@H](C(=O)N[C@@H](CC(C)C)C(=O)N[C@@H](CO)C(=O)N[C@@H](CO)C(=O)N[C@H](C(=O)N[C@@H](CC(N)=O)C(=O)N[C@H](C(=O)NCC(=O)N[C@@H](CO)C(=O)N[C@@H](CC(N)=O)C(=O)N[C@H](C(=O)N[C@@H](CC(C)C)C(N)=O)[C@@H](C)O)C(C)C)[C@@H](C)O)N(C)C(=O)[C@H](C)NC(=O)CN(C)C(=O)[C@H](Cc1ccccc1)NC(=O)[C@H](CC(N)=O)NC(=O)[C@H](CC(N)=O)NC(=O)[C@H](CO)NC(=O)[C@H](CO)NC(=O)[C@H](CCCNC(=N)N)NC(=O)[C@H](Cc1c[nH]cn1)NC(=O)[C@H](CC(C)C)NC(=O)[C@H](Cc1ccccc1)NC(=O)[C@H](CCC(=O)O)NC(=O)[C@H](C)NC(=O)[C@H](CC(C)C)NC(=O)[C@H](CCCNC(=N)N)NC(=O)[C@H](CCC(N)=O)NC(=O)[C@@H](NC(=O)[C@H](C)NC(=O)[C@@H]1CSSC[C@H](NC(=O)[C@H](CCCNC(=N)N)NC(=O)CC[C@H](NC(=O)CCCCCCCCCCCCCCCCCCC(=O)O)C(=O)O)C(=O)N[C@@H](CC(N)=O)C(=O)N[C@@H]([C@@H](C)O)C(=O)N[C@@H](C)C(=O)N[C@@H]([C@@H](C)O)C(=O)N1)[C@@H](C)O [Compound 100, [19CD]-isoGlu-RC()NTATC()ATQRLAEFLHRSSNNF-Gly(Me)-A-Ile(Me)-LSSTNVGSNTL-NH2] ({C20 diacid-γGlu}-RCNTATCATQRLAEFLHRSSNNF[Sar]A[NMeI]LSSTNVGSNTL-NH2; disulfide 2-7) | 6.3 | SS (SS indicates solubility ≥ 1mg/ml) | SS (SS indicates solubility ≥ 1mg/ml) | SS (SS indicates solubility ≥ 1mg/ml) | SS (SS indicates solubility ≥ 1mg/ml) | II (II indicates solubility ≤ 1 mg/ml) | SS (SS indicates solubility ≥ 1mg/ml) | SS (SS indicates solubility ≥ 1mg/ml) | 0.37 |  | 
CC[C@H](C)[C@@H](C(=O)N[C@@H](CC(C)C)C(=O)N[C@@H](CO)C(=O)N[C@@H](CO)C(=O)N[C@H](C(=O)N[C@@H](CCC(=O)O)C(=O)N[C@H](C(=O)NCC(=O)N[C@@H](CO)C(=O)N[C@@H](CCC(=O)O)C(=O)N[C@H](C(=O)N1CCC[C@H]1C(N)=O)[C@@H](C)O)C(C)C)[C@@H](C)O)N(C)C(=O)[C@H](C)NC(=O)CN(C)C(=O)[C@H](Cc1ccccc1)NC(=O)[C@H](CO)NC(=O)[C@H](CO)NC(=O)[C@H](CO)NC(=O)[C@H](CO)NC(=O)[C@H](CCCNC(=N)N)NC(=O)[C@H](Cc1c[nH]cn1)NC(=O)[C@H](CC(C)C)NC(=O)[C@H](Cc1ccccc1)NC(=O)[C@H](CCC(=O)O)NC(=O)[C@H](C)NC(=O)[C@H](CC(C)C)NC(=O)[C@H](CCCNC(=N)N)NC(=O)[C@H](CCC(=O)O)NC(=O)[C@@H](NC(=O)[C@H](C)NC(=O)[C@@H]1CSSC[C@H](NC(=O)[C@H](CCCCN)NC(=O)[C@H](CCCCN)NC(=O)CC[C@H](NC(=O)CCCCCCCCCCCCCCCCCCC(=O)O)C(=O)O)C(=O)N[C@@H](CCC(=O)O)C(=O)N[C@@H]([C@@H](C)O)C(=O)N[C@@H](C)C(=O)N[C@@H]([C@@H](C)O)C(=O)N1)[C@@H](C)O [Compound 163, [19CD]-isoGlu-KKC()ETATC()ATERLAEFLHRSSSSF-Gly(Me)-A-Ile(Me)-LSSTEVGSETP-NH2] ({C20 diacid-γGlu}-KKCETATCATERLAEFLHRSSSSF[Sar]A[NMeI]LSSTEVGSETP-NH2; disulfide 3-8) |  | SS (SS indicates solubility ≥ 1mg/ml) | SS (SS indicates solubility ≥ 1mg/ml) | SS (SS indicates solubility ≥ 1mg/ml) | SS (SS indicates solubility ≥ 1mg/ml) | SS (SS indicates solubility ≥ 1mg/ml) | II (II indicates solubility ≤ 1 mg/ml) | SS (SS indicates solubility ≥ 1mg/ml) |  | 0.74 | 0.42
CC[C@H](C)[C@@H](C(=O)N[C@@H](CC(C)C)C(=O)N[C@@H](CO)C(=O)N[C@@H](CO)C(=O)N[C@H](C(=O)N[C@@H](CC(N)=O)C(=O)N[C@H](C(=O)NCC(=O)N[C@@H](CO)C(=O)N[C@@H](CC(N)=O)C(=O)N[C@H](C(=O)N[C@@H](Cc1ccccc1)C(N)=O)[C@@H](C)O)C(C)C)[C@@H](C)O)N(C)C(=O)[C@H](C)NC(=O)CN(C)C(=O)[C@H](Cc1ccccc1)NC(=O)[C@H](CC(N)=O)NC(=O)[C@H](CC(N)=O)NC(=O)[C@H](CO)NC(=O)[C@H](CO)NC(=O)[C@H](CCCNC(=N)N)NC(=O)[C@H](Cc1c[nH]cn1)NC(=O)[C@H](CC(C)C)NC(=O)[C@H](Cc1ccccc1)NC(=O)[C@H](CCC(=O)O)NC(=O)[C@H](C)NC(=O)[C@H](CC(C)C)NC(=O)[C@H](CCCNC(=N)N)NC(=O)[C@H](CCC(N)=O)NC(=O)[C@@H](NC(=O)[C@H](C)NC(=O)[C@@H]1CSSC[C@H](NC(=O)[C@H](CCCNC(=N)N)NC(=O)CC[C@H](NC(=O)CCCCCCCCCCCCCCCCCCC(=O)O)C(=O)O)C(=O)N[C@@H](CC(N)=O)C(=O)N[C@@H]([C@@H](C)O)C(=O)N[C@@H](C)C(=O)N[C@@H]([C@@H](C)O)C(=O)N1)[C@@H](C)O [Compound 115, [19CD]-isoGlu-RC()NTATC()ATQRLAEFLHRSSNNF-Gly(Me)-A-Ile(Me)-LSSTNVGSNTF-NH2] ({C20 diacid-γGlu}-RCNTATCATQRLAEFLHRSSNNF[Sar]A[NMeI]LSSTNVGSNTF-NH2; disulfide 2-7) | 0.37 | SS (SS indicates solubility ≥ 1mg/ml) | SS (SS indicates solubility ≥ 1mg/ml) | SS (SS indicates solubility ≥ 1mg/ml) | II (II indicates solubility ≤ 1 mg/ml) | II (II indicates solubility ≤ 1 mg/ml) | SS (SS indicates solubility ≥ 1mg/ml) | II (II indicates solubility ≤ 1 mg/ml) | 0.47 |  | 
CC[C@H](C)[C@@H](C(=O)N[C@@H](CC(C)C)C(=O)N[C@@H](CO)C(=O)N[C@@H](CO)C(=O)N[C@H](C(=O)N[C@@H](CCC(=O)O)C(=O)N[C@H](C(=O)NCC(=O)N[C@@H](CO)C(=O)N[C@@H](CCC(=O)O)C(=O)N[C@H](C(=O)N1CCC[C@H]1C(N)=O)[C@@H](C)O)C(C)C)[C@@H](C)O)N(C)C(=O)[C@H](C)NC(=O)CN(C)C(=O)[C@H](Cc1ccccc1)NC(=O)[C@H](CO)NC(=O)[C@H](CO)NC(=O)[C@H](CO)NC(=O)[C@H](CO)NC(=O)[C@H](CCCNC(=N)N)NC(=O)[C@H](Cc1c[nH]cn1)NC(=O)[C@H](CC(C)C)NC(=O)[C@H](Cc1ccccc1)NC(=O)[C@H](CCC(=O)O)NC(=O)[C@H](C)NC(=O)[C@H](CC(C)C)NC(=O)[C@H](CCCNC(=N)N)NC(=O)[C@H](CO)NC(=O)[C@@H](NC(=O)[C@H](C)NC(=O)[C@@H]1CSSC[C@H](NC(=O)[C@H](CCCNC(=N)N)NC(=O)CC[C@H](NC(=O)CCCCCCCCCCCCCCCCCCC(=O)O)C(=O)O)C(=O)NCC(=O)N[C@@H]([C@@H](C)O)C(=O)N[C@@H](C)C(=O)N[C@@H]([C@@H](C)O)C(=O)N1)[C@@H](C)O [Compound 141, [19CD]-isoGlu-RC()GTATC()ATSRLAEFLHRSSSSF-Gly(Me)-A-Ile(Me)-LSSTEVGSETP-NH2] ({C20 diacid-γGlu}-RCGTATCATSRLAEFLHRSSSSF[Sar]A[NMeI]LSSTEVGSETP-NH2; disulfide 2-7) |  | SS (SS indicates solubility ≥ 1mg/ml) | SS (SS indicates solubility ≥ 1mg/ml) | SS (SS indicates solubility ≥ 1mg/ml) | SS (SS indicates solubility ≥ 1mg/ml) | SS (SS indicates solubility ≥ 1mg/ml) | SS (SS indicates solubility ≥ 1mg/ml) | SS (SS indicates solubility ≥ 1mg/ml) |  | 0.13 | 0.11
